Experimental data: patent publication US20240252657A1, “HEMTAC SMALL-MOLECULE DEGRADATION AGENT AND APPLICATION THEREOF” (SHANDONG UNIVERSITY, priority 2022, published 2024)

What was measured:
[1] = target: T1, CDK4 (Mus musculus, UniProt P30285); experiment: Western blot, CDK4 degradation in B16F10 cells; format: cell-based; details: read-out: DC50 (drug concentration leading to 50% protein degradation) of CDK4
T1 construct: degradation of CDK4 and CDK6 in B16F10 cells; endogenous in cells; host or cells: B16F10
T1 sequence (P30285 1-303): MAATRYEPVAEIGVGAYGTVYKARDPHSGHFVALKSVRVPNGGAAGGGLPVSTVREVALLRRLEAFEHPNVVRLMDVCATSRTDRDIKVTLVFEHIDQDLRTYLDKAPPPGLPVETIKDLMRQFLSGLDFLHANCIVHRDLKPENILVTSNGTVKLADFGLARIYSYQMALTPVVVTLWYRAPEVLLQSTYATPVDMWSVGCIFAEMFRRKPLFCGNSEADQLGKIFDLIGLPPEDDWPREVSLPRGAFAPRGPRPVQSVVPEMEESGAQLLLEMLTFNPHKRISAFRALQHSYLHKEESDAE
Protocol: (§1) After B16F10 cells were treated with the compound at different concentrations and for different periods of time, the levels of CDK4 and CDK6 proteins in the cells were measured by Western blot. Firstly, intracellular proteins were extracted and quantified. The cells were lysed with RIPA cell lysate (with a protease inhibitor), and proteins were collected, which were quantified by a BCA protein quantitative determination kit and quantified to the same concentration. Protein denaturation: The proteins were placed in a water bath at 100° C. for 8 minutes to denature the proteins. Loading and gel electrophoresis: The loading amount per cell was generally 20 μL. […] Membrane transfer: The membrane transfer was carried out using a wet transfer instrument, at a constant current of 250 mA for 90 minutes. The PVDF membrane should be soaked with methanol beforehand. Blocking: The PVDF membrane was placed in BSA blocking buffer for 1 h (with slow shaking in a shaker). Incubation with primary antibody: The primary antibody was diluted according to the instructions. The primary antibody was added, followed by incubation overnight at 4° C. Membrane washing: The membrane was washed with TBST washing buffer for 3 times, each time for 10 minutes. Incubation with secondary antibody: The second antibody was added, followed by incubation in a shaker at room temperature for 1 h. […]

[2] = system: CDK4/6; experiment: Western blot, CDK4/6 protein level in B16F10 cells; format: cell-based, mouse
Protocol: as §1

[3] = target: T2, CDK6 (Mus musculus, UniProt Q64261); experiment: Western blot, CDK6 degradation in B16F10 cells; format: cell-based; details: read-out: DC50 (drug concentration leading to 50% protein degradation) of CDK6
T2 construct: degradation of CDK4 and CDK6 in B16F10 cells; endogenous in cells; host or cells: B16F10
Protocol: as §1

[4] = system: mouse B16F10 melanoma; experiment: Anti-tumor experiment in mice in vivo, B16F10 melanoma xenograft model
Protocol: B16F10 cells (10^6 cells/mouse) were injected subcutaneously into the forelimb of C57BL/6 mice to establish an xenograft model of mouse B16F10 melanoma. When the tumor volume reached 100-200 mm^3, the mice were randomly divided into four groups (n=6). The compound was injected intraperitoneally every day for two weeks, and the body weights and tumor volumes of the mice were measured every two days. The tumor length and width were measured along two orthogonal axes with a vernier caliper, and the tumor volume in the mouse was calculated based on an equation V (mm^3)=(length×width^2)/2.

T2 sequence (Q64261 whole entry): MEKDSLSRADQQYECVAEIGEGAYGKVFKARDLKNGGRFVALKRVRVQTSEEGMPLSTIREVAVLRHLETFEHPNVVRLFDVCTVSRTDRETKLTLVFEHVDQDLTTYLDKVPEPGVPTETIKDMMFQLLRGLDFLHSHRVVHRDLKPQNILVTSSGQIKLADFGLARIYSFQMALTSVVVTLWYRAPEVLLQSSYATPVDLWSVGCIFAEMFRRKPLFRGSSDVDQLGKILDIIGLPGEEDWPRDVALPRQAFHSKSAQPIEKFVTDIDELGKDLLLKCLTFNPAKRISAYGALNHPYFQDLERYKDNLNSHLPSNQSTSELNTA

`COc1c(C)cnc(Cn2cc(C#CCCn3cc(CNC(=O)CN4CCN(c5ccc(Nc6ncc7c(C)c(C(C)=O)c(=O)n(C8CCCC8)c7n6)nc5)CC4)nn3)c3c(Cl)nc(N)nc32)c1C` [Compound 26] was tested, and the DC50 [1] was about 26 nM, the “time within which degradation of CDK4/6 was induced” value ([2]; B16F10 cells, 0.5 μM) was at most 12 h and the “degradation activity (rank among the HEMTACs)” value ([2]; B16F10 melanoma cells, 24 h) was “highest degradation activity”. For the same molecule, the DC50 [3] was about 19 nM, the “anti-tumor effect compared with BIIB021 (20 mg/kg)” value ([4]; 20 mg/kg, intraperitoneally every day for two weeks) was “better than that of HSP90 inhibitor BIIB021” and the growth of melanoma ([4]; 40 mg/kg, intraperitoneally every day for two weeks) was “significantly inhibit the growth of melanoma”. For the same molecule, the “other signs of toxicity” value ([4]; all treatment groups) was “no other signs of toxicity”, the “body weight of mice” value ([4]; intraperitoneally every day for two weeks) was “slight weight loss” and the “anti-melanoma effect in vivo” value ([4]; mouse B16F10 melanoma model, FIG. 4 legend, no dose given) was “significant anti-melanoma effect”.
